Reference: paper PMC10035370, “Targeting Tumor Angiogenesis with the Selective VEGFR-3 Inhibitor EVT801 in Combination with Cancer Immunotherapy” (Cancer Research Communications, 2022)

Key:
BNL-R3 tumors = assay: VEGFR3 expressing BNL tumor model (BNL-R3); format: in vivo, mice
Description: A total number of 60 female BALB/c mice were injected subcutaneously on the flank with 2 x 10^6 cells in 250 μL PBS buffer/growth factor reduced Matrigel®. Mice were then kept in a post-operative cabinet at 28 °C until complete recovery. Assuming an ovoid form, tumor volume in mm3 was calculated using digital callipers according to the following formula: V = 0.52 x (width)² x length. On day 7, mice were randomized into 4 groups of 11 mice and 1 group with 16 mice, according to mean tumor volume via cage equalizer software. Subsequently, tumor volume was measured on days 11, 13, 15, 18, 19 and 21 following tumor cell injection. The selected groups received vehicle or EVT801 orally in a volume of 10 mL/kg. Mice body weight was measured daily before dosing. On the day of termination, mice were anaesthetized to facilitate 500 μL blood withdrawal by puncture of the jugular vein. Three mice per group and per time point (i.e., 0.5, 2, 4 and 24 h after the last dosing) were allocated for pharmacokinetic study. Spleens of 3 mice per group were collected, and immune cell populations were separated from dissociated splenocytes via MACS, and subjected to flow cytometry analysis.

DEN-induced liver tumor = assay: N-diethylnitrosamine-induced hepatocarcinoma mouse model; format: in vivo, mice; conditions: daily doses of 100 mg/kg for 2 months
Description: After weighing, 38 male C3/H mice received a 10 mg/kg dose of N-diethylnitrosamine (DEN) intraperitoneally, whereas a group of 5 animals was kept without DEN injection as control group. After 12 months, mice that received DEN injection were randomized by weight in two groups of each 19 animals. The mice were dosed daily orally for 2 months either with EVT801 or vehicle. On the day of termination, mice treated with EVT801 received a last dose of 30 mg/kg to take blood and tumor samples for compound concentration determination. After incision of the peritoneal cavity, blood was taken from the vena cava. Following excision and weighing of the liver, the number of tumors per liver was counted. The tumor burden was calculated as the sum of individual tumor volumes for each mouse. No blood sampling was performed on control and vehicle groups. Plasma and tumor samples were stored at −20°C until analysis. Concentration of EVT801 was determined by LC/MS-MS.

VEGFR-2 = VEGFR-2 (Homo sapiens, UniProt P35968); assay: Cellular autophosphorylation assay, HEK293 cells transiently expressing VEGFR-2; format: cell-based; set-up: expressed in transfected cells; host or cells: HEK293T; conditions: read-out: IC50 in cellular assays, VEGFR-2 autophosphorylation
Description: Transfection of HEK293T cells and Ba/F3 cells with VEGFR-1-Flag, VEGFR-2-Flag or VEGFR-3-Flag expression constructs was performed using Fugene-6 (Roche) as per manufacturer’s protocol. Briefly, Fugene-6 was pre-incubated with Opti-Mem (Gibco) before adding DNA. After 24 h, media was replaced with serum-free culture media containing 0.2 % BSA. On the next day, cells were incubated for 1 h in 1 mM orthovanadate, harvested, dissociated and distributed at 4 x 10^5 cells in 5 mL for HEK-VEGFR-1 and HEK-VEGFR-3, and 5 x 10^4 cells per 5 mL for HEK VEGFR-2 in the presence of EVT801 or SAR401849. After 30 min, the reaction was stopped by the addition of cold PBS supplemented with 1 mM orthovanadate. Cells were then lysed with 150 μl of RIPA buffer for 15 min at 4°C, then centrifuged for 10 min at 10,000 g. Supernatants (75 μl) were distributed in duplicate on 96 well plates that were precoated with the anti-flag, and left for 1 h at room temperature. After 3 washes, the anti-phosphotyrosine conjugated to the HRP was added and incubated for 1 h at room temperature. Wells were then washed 3 times with TBS buffer containing 0.5 % Tween-20 and 2 mM MgCl2. The reaction was stopped with 50 μL of 2 N H2SO4, and the signal was read with Envision at the wavelengths of 485 nm and 530 nm.

VEGFR-1 = biological target: T1, VEGFR-1 (Homo sapiens, UniProt P17948); assay: Biochemical kinase assay (in vitro assay), VEGFR-1; conditions: read-out: IC50 in biochemical assays, VEGFR-1
T1 construct: The VEGFR-1 tyrosine kinase domain was obtained from Upstake; purchased Upstake (so in the source)
T1 sequence (P17948 827-1158 limits assumed): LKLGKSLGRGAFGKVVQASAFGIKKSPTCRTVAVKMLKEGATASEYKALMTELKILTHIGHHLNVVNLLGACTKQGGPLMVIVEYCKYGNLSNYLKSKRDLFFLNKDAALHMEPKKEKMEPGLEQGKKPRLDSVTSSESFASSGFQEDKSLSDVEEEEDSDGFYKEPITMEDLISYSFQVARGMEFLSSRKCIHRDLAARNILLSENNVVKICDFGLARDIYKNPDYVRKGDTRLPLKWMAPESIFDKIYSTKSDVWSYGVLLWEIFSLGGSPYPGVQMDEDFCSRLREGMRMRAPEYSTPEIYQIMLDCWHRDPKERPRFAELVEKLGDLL
Description: Sigma protein kinase assay kits were used. 125 μL per well of Poly-Glu-Tyr (PGT) solution (250 μg/mL of PGT in PBS without Ca^2+, Mg^2+ and sodium bicarbonate) was added in a 96-well plate and overnight incubation was performed at 37 °C. The day after, coating solution was removed and wells were washed with 300 μL of PBS-Tween-20 0.05 %. The washing buffer was removed and wells were dried for 2 h at 37 °C. 90 μL of the kinase buffer was supplemented with ATP (30 μM for VEGFR-1 and VEGFR-3, and 15 μM for VEGFR-2), and the compound (EVT801 or SAR401849 at the indicated concentration or 1 % DMSO for the vehicle control). The phosphorylation reaction was initiated by the addition of 20 μL of kinase buffer without ATP supplemented with 100 ng of the tyrosine kinase (or without tyrosine kinase as control). Plates were incubated with gentle agitation at room temperature for 30 min. After 3 washes with 300 μL of washing buffer, 100 μL of phosphotyrosine specific monoclonal antibody conjugated to HRP (1:30,000) was added onto the phosphorylated PGT. Plates were incubated for 30 min at room temperature under gentle agitation. Then, 3 washes with 300 μL of washing buffer were performed. […] After 7 min at room temperature, the reaction was stopped by addition of 100 μL of […], and absorbance was determined with an Endvision spectrophotometer at 492 nm.

Chain of VEGFR-2 (P35968 20-1356): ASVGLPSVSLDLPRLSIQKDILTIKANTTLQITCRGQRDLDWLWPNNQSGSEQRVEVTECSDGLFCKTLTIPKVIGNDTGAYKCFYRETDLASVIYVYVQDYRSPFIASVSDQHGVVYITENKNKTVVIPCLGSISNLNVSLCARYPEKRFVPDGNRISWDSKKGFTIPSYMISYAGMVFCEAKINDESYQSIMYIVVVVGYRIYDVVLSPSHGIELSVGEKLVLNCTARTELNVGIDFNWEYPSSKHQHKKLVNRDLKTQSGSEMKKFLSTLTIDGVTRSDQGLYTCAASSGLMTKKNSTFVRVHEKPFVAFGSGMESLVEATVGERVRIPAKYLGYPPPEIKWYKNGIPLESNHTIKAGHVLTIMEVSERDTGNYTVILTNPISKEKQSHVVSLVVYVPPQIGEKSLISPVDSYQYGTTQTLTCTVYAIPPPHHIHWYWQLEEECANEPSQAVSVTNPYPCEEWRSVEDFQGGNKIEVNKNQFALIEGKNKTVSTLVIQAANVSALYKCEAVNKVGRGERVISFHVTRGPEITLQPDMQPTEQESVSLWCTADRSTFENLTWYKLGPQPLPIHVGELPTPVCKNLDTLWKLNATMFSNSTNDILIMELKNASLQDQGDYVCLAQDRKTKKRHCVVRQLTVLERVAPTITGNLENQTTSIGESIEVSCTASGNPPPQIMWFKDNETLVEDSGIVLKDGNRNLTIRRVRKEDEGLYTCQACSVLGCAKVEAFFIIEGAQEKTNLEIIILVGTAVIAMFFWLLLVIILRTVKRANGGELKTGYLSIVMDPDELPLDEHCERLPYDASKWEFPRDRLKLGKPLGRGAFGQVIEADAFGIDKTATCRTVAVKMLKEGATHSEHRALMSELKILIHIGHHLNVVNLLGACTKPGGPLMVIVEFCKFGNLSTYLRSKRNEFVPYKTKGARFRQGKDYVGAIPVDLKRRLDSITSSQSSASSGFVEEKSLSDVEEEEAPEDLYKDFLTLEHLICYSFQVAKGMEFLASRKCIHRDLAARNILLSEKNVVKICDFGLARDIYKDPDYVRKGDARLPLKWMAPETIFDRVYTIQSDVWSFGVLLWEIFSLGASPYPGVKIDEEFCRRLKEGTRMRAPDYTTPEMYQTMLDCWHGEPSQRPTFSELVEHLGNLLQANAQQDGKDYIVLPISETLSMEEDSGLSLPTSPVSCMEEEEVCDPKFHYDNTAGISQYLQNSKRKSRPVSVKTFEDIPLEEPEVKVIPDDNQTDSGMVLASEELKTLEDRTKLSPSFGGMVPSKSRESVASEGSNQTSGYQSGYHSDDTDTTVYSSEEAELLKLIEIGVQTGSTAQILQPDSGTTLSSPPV

Compound: CCn1c(N)c(-c2ncc[nH]2)c(=O)c2ccc(C#C[C@@](C)(O)COC)nc21 [EVT801]
- T/C ratio, tumor growth (BNL-R3 tumors; 10 mg/kg twice per day): 31%
- decrease of number of vessels (BNL-R3 tumors; 10 mg/kg twice per day): 60%
- decrease of total vessel surface (BNL-R3 tumors; 10 mg/kg twice per day): 35%
- T/C ratio, tumor growth (BNL-R3 tumors; 30 mg/kg twice per day): 10%
- decrease of number of vessels (BNL-R3 tumors; 30 mg/kg twice per day): 83%
- decrease of total vessel surface (BNL-R3 tumors; 30 mg/kg twice per day): 29%
- tumor hypoxia (BNL-R3 tumors; both doses, 10 and 30 mg/kg twice per day): decreased hypoxia
- infiltration of CD3+ cells in the tumor (BNL-R3 tumors; endpoint): increased
- T/C ratio, tumor volume (DEN-induced liver tumor): 22%
- liver weight (DEN-induced liver tumor): fully prevented the increase in liver weight
- IC50 (VEGFR-2): 260 nM
- IC50 (VEGFR-1): 396 nM
